Test: In vitro dermal absorption of hesperidin on Franz cells with skin explants (1st experimental part)
Format: in vitro ADME
Details: hesperidin 0.5 weight % of sample
Description: The diffusion of a first active ingredient, hesperidin, in the different layers of the skin has been assessed based on the manner by which it has been applied on the skin, namely: • 1) in the case where the hesperidin has been encapsulated in microparticles according to the invention, and following Example 1 which has been detailed above, • 2) in the case where the hesperidin has been encapsulated in microparticles of polymers, • 3) in the case where the hesperidin has been provided in a free form, • 4) in the case where the hesperidin has been provided in the form of an inclusion complex with a cyclodextrin.
These 4 preparations have constituted 4 samples of cutaneous application of hesperidin. Hesperidin represented 0.5 weight % of the mass of each of these 4 samples.
Tests on these 4 samples have been carried out in accordance with the Directives: SCCS/1358/10 on date of Jun. 22, 2010 <<Basic criteria for the in vitro assessment of dermal absorption of cosmetic ingredient>>, OECD 28 of 2004. OECD being the abbreviation of <<Organization for Economic Co-operation and Development>> and SCCS being the abbreviation of <<Scientific Committee on Consumer Safety>>.
The material that has been used consisted of Franz cells. Skin explants, with an average surface area of 2.54 cm^2 and with a thickness comprised between 1.1 and 1.35 mm, have been used. […]

- amount of hesperidin cumulated in the dermis during 24 hours: 1.98 μg/cm^2
Compound: COc1ccc([C@@H]2CC(=O)c3c(O)cc(O[C@@H]4O[C@H](CO[C@@H]5O[C@@H](C)[C@H](O)[C@@H](O)[C@H]5O)[C@@H](O)[C@H](O)[C@H]4O)cc3O2)cc1O [hesperidin in a free form, hesperidin]

— patent US20160175229A1, “MICROPARTICLES WITH CYCLODEXTRINS HAVING A DUAL LEVEL OF ENCAPSULATION” (LCA DERMATECH, priority 2013, published 2016)
